Laboratory results reported in patent US8426673B2, “Pathological animal model for pelvic pain syndrome” (Astellas Pharma, Inc., priority 2008, dated 2013).
Where two headings read alike, the source gives them in different places.

Columns and labels:
Male Wistar rats [1] = experiment: Intra testicular injection of acetic acid-induced characteristic pain or discomfort behavior; assay type: in vivo, rat
Protocol: (§1) Male Wistar rats aged 5 to 12 weeks (Charles River Japan) were used. Positions of the testes were confirmed by keeping the waist of each rat from the dorsal side, and a stimulative substance at a volume of 1 ml/kg was administered into the right and left testes using a syringe equipped with a 27 G needle.
When the intra-testicular administration is achieved, the testes are swelled and become hard in touch. The individuals whose testes were not swelled after the injection were judged as failure in the injection and excluded from further analysis. In addition, dye mixed stimulative substance was injected into the testes and the distribution of the dye within the testes was checked after completion of the experiments to verify whether a stimulative substance was successfully administered or not.
All data was presented as mean and standard error of the mean. The unpaired parametric t-test was used to compare the two group. The parametric Dunnett's multiple comparison test was performed to compare the three groups or more. P<0.05 was considered statistically significant.
(1) Dose-dependency of acetic acid: A rat was placed individually in a clear, round, plastic container (Natsume, Japan) for observation immediately after the intra testicular injection of 0.3, 1 and 3% acetic acid aqueous solutions or distilled water. […] Among these behaviors, the number of behaviors 1) to 3), frequently observed behavior, was counted from 5 to 20 minutes after the intra testicular injection of acetic acid.
(2) Effects of indomethacin: Indomethacin at 5 mg/3 mL/kg (Sigma-Aldrich Japan, Japan) or 0.1% Na2CO3 aqueous solution (vehicle solution) was orally administered 1 hour before the intra testicular injection of 1% acetic acid. Number of the characteristic pain or discomfort behavior was measured in the same manner as described in the above section.

Male Wistar rats [2] = details: 1% acetic acid 1 ml/kg intra testicular; 30 to 60 min after injection; distilled water group 97±8%; p<0.05
Excerpt: All data was presented as mean and standard error of the mean. The unpaired parametric t-test was used to compare the two group. P<0.05 was considered statistically significant.

Male Wistar rats [3] = experiment: Intra testicular injection of NGF-induced pain or discomfort behavior; assay type: in vivo, rat; details: 10 to 30 minutes after injection, p<0.01
Protocol: as §1
When the intra-testicular administration is achieved, the testes are swelled and become hard in touch. The individuals whose testes were not swelled after the injection were judged as failure in the injection and excluded from further analysis. […]
(1) Dose dependency of NGF: Mouse NGF 2.5S (Alomone Labs, Ltd., Israel) at […] or saline (vehicle solution) was administered to both of the testes in rat. […] Thus, the total time the behavior of 1) was measured by a stopwatch from 10 to 30 minutes after the intra testicular injection.
(2) Effects of morphine: Morphine (Takeda Chemical Industry, Ltd., Japan) at 5 mg/kg or saline (vehicle solution) was subcutaneously administered 30 minutes before the intra testicular injection of 100 μg/kg NGF. Total time of the above mentioned characteristic pain or discomfort behavior was measured from 10 to 30 minutes after the intra testicular injection of NGF. […]

Male Wistar rats [4] = experiment: Effects of intra testicular injection of NGF on bladder capacity (conscious cystometry); assay type: in vivo, rat; details: 100 μg/kg NGF (1 ml/kg) intra testicular; 30 to 60 min after injection; saline group 104±14%; p<0.01
Protocol: P<0.05 was considered statistically significant.
After that, “pre bladder capacity” was recorded for 1 hr. […] Physiological saline (1 ml/kg) or 100 μg/kg NGF (1 ml/kg) were injected into the testes. […] The bladder capacity in the saline treated group was 104±14%, thus showing no significant change. […] This change was significant in comparison with that of physiological saline treated group (FIG. 6).

CC(=O)O [acetic acid]
characteristic pain or discomfort behaviors (Male Wistar rats [1]; 0.3% acetic acid aqueous solution, 1 ml/kg intra testicular, 5 to 20 minutes after injection, rat): No characteristic pain or discomfort behaviors was observed
number of pain or discomfort behaviors (Male Wistar rats [1]; 1% acetic acid aqueous solution, 1 ml/kg intra testicular; behaviors 1) to 3) counted 5 to 20 minutes after injection, rat): 16±2 times
number of pain or discomfort behaviors (Male Wistar rats [1]; 3% acetic acid aqueous solution, 1 ml/kg intra testicular; behaviors 1) to 3) counted 5 to 20 minutes after injection, rat): 19±6 times
bladder capacity, percent of the pre bladder capacity (Male Wistar rats [2]): 53±12%

CN1CC[C@]23c4c5ccc(O)c4O[C@H]2[C@@H](O)C=C[C@H]3[C@H]1C5 [morphine, Morphine]
total time of the characteristic pain or discomfort behavior (Male Wistar rats [3]; 5 mg/kg subcutaneously 30 minutes before intra testicular 100 μg/kg NGF, vehicle group 167±31 seconds): 9 ± 4 s

COc1ccc2c(c1)c(CC(=O)O)c(C)n2C(=O)c1ccc(Cl)cc1 [indomethacin, Indomethacin]
number of the characteristic pain or discomfort behaviors (Male Wistar rats [1]; 5 mg/3 mL/kg orally 1 hour before intra testicular 1% acetic acid, counted 5 to 20 minutes, vehicle group 19±6 times, p<0.01): 3±2 times

B1: NGF: Mouse NGF 2.5S (Alomone Labs), nerve growth factor used as stimulative substance injected into the testes (protein, UniProt P01139 122-241, looked up)
Beta-nerve growth factor: SSTHPVFHMGEFSVCDSVSVWVGDKTTATDIKGKEVTVLAEVNINNSVFRQYFFETKCRASNPVESGCRGIDSKHWNSYCTTTHTFVKALTTDEKQAAWRFIRIDTACVCVLSRKATRRG
total time of the characteristic pain or discomfort behavior (scratching the body vigorously with hindlimbs) (Male Wistar rats [3]; 100 μg/ml/kg NGF intra testicular, vehicle group 1.0±0.4 second): 155 ± 29 s
bladder capacity, percent of the pre bladder capacity (Male Wistar rats [4]): 29±9%
